Source: US20220125983A1, “MALODOR COUNTERACTING COMPOSITION AND AGENT AND THE USE THEREOF” (CHEMCOM S.A., priority 2019, published 2022)

What was measured:
[1] = tested on: perception of the earthy olfactory note; experiment: Sensory test: expert panel rating of odor intensity of earthy compounds without and with nefopam (Tedlar bags); format: in vivo, human; details: for Odor intensity without Nefopam, note A: earthy: scale 0 (no odor) to 5 (saturating odor), resolution 0.5, panel of five assessors; for Odor intensity of Geosmin with nefopam enantiomer as blocker, note A: earthy / Odor intensity of Geosmin with nefopam enantiomer as blocker, note B: camphoreous: Geosmin + enantiomer free base
Experimental: The composition comprising nefopam was prepared by diluting racemic nefopam in its free base form in ethanol at a concentration of 107 mg/ml The test comprised in a first step, microinjecting the earthy compound, nefopam or earthy compound+nefopam in 20 L TedlarTM bags specially conceived for gas sampling, previously loaded with a known volume of pure air (from oil free compressor with additional charcoal filters). The earthy compounds were solubilized in ethanol at a suitable concentration (see table 2) and injected in the 20 L […] bag. The final concentration in the bag varied between 7 mg/m^3' to 383 mg/m^3, (table 2), depending on the odor strength of the compound while the concentration of nefopam in the bags was fixed at 54 mg/m^3. [table] The odor presentation device comprised a cylinder filled with clean air. The bag was inserted in the cylinder and connected to a sampling installation in the cylinder by means of a valve. By controlled injection of clean air into the cylinder, the interior pressure was raised and the sampling air was pressed in a controlled manner out of the sample container through the opened valve. This sampling air was transferred to the nose of the corresponding sensory odor panel member by means of a funnel. By this means, each sensory odor panel member received an identical sample with a standardized volume flow and a constant provision time. The outlet flow rate was between 10-20 L/min (in order to avoid any mixing with ambient air before reaching the nose). The expert panel of five assessors entered the room 15 minutes before starting the test. The basic standard test was a rating in intensity and the use of the closest chemical descriptors according to the following order of presentation: 1. earthy compound 2. Mix: earthy compound (at same concentrations as for 1)+Nefopam. Each assessor could smell for few seconds. A pause of minimum 1 minute was considered between presentations. The individual rating was done with a resolution of 0.5 on a scale ranging from 0 (no odor) to 5 (saturating odor). Both enantiomers of nefopam, (+)-nefopam and (-)-nefopam in their free base from obtained as described in examples 1 and 2, respectively, were assessed separately as blockers of the perception of the earthy note of geosmin, using the same procedure as described in example 3.

human nose = details: as low as; cited from earlier work
[2] = earthy compound alone in bag at Table 2 concentration
[3] = earthy compound alone in bag at Table 2 concentration, scale 0 to 5
[4] = 2-ethylfenchol 188 mg/m^3 + racemic nefopam free base 54 mg/m^3 in bag, scale 0 to 5
[5] = 2-methylisoborneol 150 mg/m^3 + racemic nefopam free base 54 mg/m^3 in bag, scale 0 to 5
[6] = Ambrinol R 29 mg/m^3 + racemic nefopam free base 54 mg/m^3 in bag, scale 0 to 5
[7] = Ambrinol S 26 mg/m^3 + racemic nefopam free base 54 mg/m^3 in bag, scale 0 to 5
[8] = Ambrinol racemic 25 mg/m^3 + racemic nefopam free base 54 mg/m^3 in bag, scale 0 to 5
[9] = Geosmin 19 mg/m^3 + racemic nefopam free base 54 mg/m^3 in bag, scale 0 to 5
[10] = Huminol 11 mg/m^3 + racemic nefopam free base 54 mg/m^3 in bag, scale 0 to 5
[11] = Methyl geosmin 7 mg/m^3 + racemic nefopam free base 54 mg/m^3 in bag, scale 0 to 5
[12] = Patchouli oil 383 mg/m^3 + racemic nefopam free base 54 mg/m^3 in bag, scale 0 to 5
[13] = earthy compounds of Table 3, nefopam 54 mg/m^3
[14] = Example 4, same procedure as example 3, scale 0 to 5
[15] = Example 4, Geosmin alone, same procedure as example 3, scale 0 to 5

CC1(O)CCC2C(=CCCC2(C)C)C1 (racemic) [Ambrinol racemic, 2,5,5-trimethyl-1,3,4,4a,6,7-hexahydronaphthalen-2-ol]
Odor intensity without Nefopam, note A: earthy [1, 2]: 1.5
Odor intensity without Nefopam, note B: α-pinene [1, 3]: 2.5

CN1CCOC(c2ccccc2)c2ccccc2C1 (racemic) [Nefopam, (RS)-5-methyl-1-phenyl-1,3,4,6-tetrahydro-2,5-benzoxazocine]
Odor intensity with Nefopam, 2-ethylfenchol note A: earthy [1, 4]: 0
Odor intensity with Nefopam, 2-ethylfenchol note B: camphoreous [1, 4]: 3
Odor intensity with Nefopam, 2-methylisoborneol note A: earthy [1, 5]: 0
Odor intensity with Nefopam, 2-methylisoborneol note B: camphoreous [1, 5]: 2.5
Odor intensity with Nefopam, Ambrinol R note A: earthy [1, 6]: 0.5
Odor intensity with Nefopam, Ambrinol R note B: scatole [1, 6]: 3.5
Odor intensity with Nefopam, Ambrinol S note A: earthy [1, 7]: 0.5
Odor intensity with Nefopam, Ambrinol S note B: vetivert [1, 7]: 2
Odor intensity with Nefopam, Ambrinol racemic note A: earthy [1, 8]: 0
Odor intensity with Nefopam, Ambrinol racemic note B: α-pinene [1, 8]: 2.5
Odor intensity with Nefopam, Geosmin note A: earthy [1, 9]: 1
Odor intensity with Nefopam, Geosmin note B: camphoreous [1, 9]: 2.5
Odor intensity with Nefopam, Huminol note A: earthy [1, 10]: 1
Odor intensity with Nefopam, Huminol note B: camphoreous [1, 10]: 2
Odor intensity with Nefopam, Methyl Geosmin note A: earthy [1, 11]: 0.5
Odor intensity with Nefopam, Methyl Geosmin note B: α-pinene [1, 11]: 1.5
Odor intensity with Nefopam, Patchouli Oil note A: earthy [1, 12]: 0.5
Odor intensity with Nefopam, Patchouli Oil note B: α-pinene [1, 12]: 2.5
Intensity of the other olfactory notes associated to the different compounds in the presence of racemic nefopam [1, 13]: not significantly decreased
Typical earthy olfactory note associated with the tested compounds when smelled in the presence of racemic nefopam [1, 13]: strongly reduced

CCC1(O)C2(C)CCC(C2)C1(C)C (centres unmarked) [2-ethylfenchol, 6-ethyl-1,5,5-trimethylbicyclo[2.2.1]heptan-6-ol]
Odor intensity without Nefopam, note A: earthy [1, 2]: 3
Odor intensity without Nefopam, note B: camphoreous [1, 3]: 3.5

CC1(O)CC2CCC1(C)C2(C)C (centres unmarked) [2-methylisoborneol, 1,2,7,7-Tetramethylbicyclo[2.2.1]heptan-2-ol]
Odor intensity without Nefopam, note A: earthy [1, 2]: 3
Odor intensity without Nefopam, note B: camphoreous [1, 3]: 0
Detection threshold (human nose) (human nose): 25 ng/L

CN1CCO[C@@H](c2ccccc2)c2ccccc2C1 [(+)-Nefopam, (S)-5-methyl-1-phenyl-1,3,4,6-tetrahydro-2,5-benzoxazocine]
Odor intensity of Geosmin with nefopam enantiomer as blocker, note A: earthy [1, 14]: 3
Odor intensity of Geosmin with nefopam enantiomer as blocker, note B: camphoreous [1, 14]: 3

CN1CCO[C@H](c2ccccc2)c2ccccc2C1 [(−)-Nefopam, (R)-5-methyl-1-phenyl-1,3,4,6-tetrahydro-2,5-benzoxazocine]
Odor intensity of Geosmin with nefopam enantiomer as blocker, note A: earthy [1, 14]: 0
Odor intensity of Geosmin with nefopam enantiomer as blocker, note B: camphoreous [1, 14]: 3

CC1(C)CCC=C2C[C@@](C)(O)CC[C@H]21 [Ambrinol R, (2S, 4aS)-(−)-2,5,5-Trimethyl-1,2,3,4,4a,5,6,7-octahydro-naphthalen-2-ol]
Odor intensity without Nefopam, note A: earthy [1, 2]: 1
Odor intensity without Nefopam, note B: scatole [1, 3]: 3.5

CC1(C)CCC=C2C[C@](C)(O)CC[C@@H]21 [Ambrinol S, (2R, 4aR)-(+)-2,5,5-Trimethyl-1,2,3,4,4a,5,6,7-octahydro-naphthalen-2-ol]
Odor intensity without Nefopam, note A: earthy [1, 2]: 2.5
Odor intensity without Nefopam, note B: vetivert [1, 3]: 1.5

CC1CCCC2(C)CCCCC12O (centres unmarked) [Geosmin, 4,8a-dimethyl-1,2,3,4,5,6,7,8-octahydronaphthalen-4a-ol]
Odor intensity without blocker, note A: earthy [1, 15]: 3
Odor intensity without blocker, note B: camphoreous [1, 15]: 3
Odor intensity without Nefopam, note A: earthy [1, 2]: 3
Odor intensity without Nefopam, note B: camphoreous [1, 3]: 3
Detection threshold (human nose) (human nose): 10 ng/L

CCC1(O)C2(C)CCCC1(C)CC2 (centres unmarked) [Huminol, 8-ethyl-1,5-dimethylbicyclo[3.2.1]octan-8-ol]
Odor intensity without Nefopam, note A: earthy [1, 2]: 2.5
Odor intensity without Nefopam, note B: camphoreous [1, 3]: 2.5

CC1(C)CCCC2(C)CCCCC12O (centres unmarked) [Methyl Geosmin, 4,4,8a-trimethyl-1,2,3,4,5,6,7,8-octahydronaphthalen-4a-ol]
Odor intensity without Nefopam, note A: earthy [1, 2]: 2.5
Odor intensity without Nefopam, note B: α-pinene [1, 3]: 1.5
